Assay results from patent US11912693B2, “Compounds for modulating S1P1 activity and methods of using the same” (TREVENA, INC., priority 2017, dated 2024).

Assays:
[1] = test system: Freund's Complete Adjuvant induced inflammation / mechanical allodynia; assay: Tactile allodynia produced by intraplantar Freund's Complete Adjuvant in rats (Randall-Selitto); type: in vivo, rat; details: CFA model, 24 hours after CFA
Method: Animals were acclimated to the vivarium for at least 48 hr prior to behavioral testing. Inflammation was induced with the administration of an intraplantar (subcutaneous injection into the plantar surface of the hind paw, i.pl.) injection of 0.10 ml Freund's Complete Adjuvant (FCA). The experiments were conducted 24 hours after CFA administration. Rats are tested for mechanical allodynia in a Randall-Selitto apparatus. The inflamed paw is put on a pedestal and a pointed force of increasing intensity (0 to 250 grams) is applied to the paw. When the animal struggles to withdraw from the force the test is stopped and the force to induce that struggle is recorded. Data is presented as mean grams of force to withdrawal or a percentage of the maximum possible effect.

hERG channel = hERG channel (Homo sapiens (Human), UniProt Q12809); assay: Automated Qpatch patch-clamp hERG assay
hERG channel, sequence (Q12809 whole entry): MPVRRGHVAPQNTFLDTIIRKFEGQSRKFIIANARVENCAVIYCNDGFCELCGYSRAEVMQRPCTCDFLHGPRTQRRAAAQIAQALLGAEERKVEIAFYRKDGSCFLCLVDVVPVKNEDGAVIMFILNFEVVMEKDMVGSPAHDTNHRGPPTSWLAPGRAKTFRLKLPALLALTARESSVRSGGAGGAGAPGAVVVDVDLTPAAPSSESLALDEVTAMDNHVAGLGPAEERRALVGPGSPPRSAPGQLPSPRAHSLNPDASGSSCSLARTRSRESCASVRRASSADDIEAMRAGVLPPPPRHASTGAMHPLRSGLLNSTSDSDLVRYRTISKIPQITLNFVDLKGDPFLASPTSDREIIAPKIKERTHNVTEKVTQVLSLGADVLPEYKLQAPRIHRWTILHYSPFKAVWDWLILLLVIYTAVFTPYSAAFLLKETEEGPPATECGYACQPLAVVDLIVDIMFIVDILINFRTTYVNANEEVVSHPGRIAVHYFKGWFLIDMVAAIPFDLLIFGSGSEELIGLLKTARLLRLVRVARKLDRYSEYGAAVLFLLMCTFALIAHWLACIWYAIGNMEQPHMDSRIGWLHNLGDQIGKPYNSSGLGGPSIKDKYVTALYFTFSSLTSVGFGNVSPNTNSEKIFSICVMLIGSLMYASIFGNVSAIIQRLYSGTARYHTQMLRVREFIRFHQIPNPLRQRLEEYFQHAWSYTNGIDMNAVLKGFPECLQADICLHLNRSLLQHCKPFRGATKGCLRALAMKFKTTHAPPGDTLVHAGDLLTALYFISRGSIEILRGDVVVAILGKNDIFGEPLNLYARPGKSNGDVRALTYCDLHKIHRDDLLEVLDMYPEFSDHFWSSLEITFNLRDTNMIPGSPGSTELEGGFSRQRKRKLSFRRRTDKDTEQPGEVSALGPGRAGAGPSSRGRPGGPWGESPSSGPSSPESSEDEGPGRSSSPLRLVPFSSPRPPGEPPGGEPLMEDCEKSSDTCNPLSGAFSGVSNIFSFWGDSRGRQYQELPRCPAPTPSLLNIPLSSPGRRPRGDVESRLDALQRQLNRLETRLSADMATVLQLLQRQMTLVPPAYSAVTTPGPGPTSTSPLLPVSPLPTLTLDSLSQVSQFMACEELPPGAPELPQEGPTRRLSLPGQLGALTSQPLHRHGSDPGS

[2] = biological target: human sphingosine-1-phosphate receptor 1 (S1P1) (Homo sapiens (Human), UniProt P21453); assay: β-Arrestin2 recruitment assay (PathHunter), S1P1 CHO-K1 cells; type: cell-based; details: for hS1P1 B-arrestin2 pEC50: β-arrestin2 recruitment, S1P1 CHO-K1 cells; for Emax: CHO-K1, read-out: hS1P1 B-arrestin2 SPAN
human sphingosine-1-phosphate receptor 1 (S1P1), sequence (P21453 whole entry, looked up, the tested form may be a part): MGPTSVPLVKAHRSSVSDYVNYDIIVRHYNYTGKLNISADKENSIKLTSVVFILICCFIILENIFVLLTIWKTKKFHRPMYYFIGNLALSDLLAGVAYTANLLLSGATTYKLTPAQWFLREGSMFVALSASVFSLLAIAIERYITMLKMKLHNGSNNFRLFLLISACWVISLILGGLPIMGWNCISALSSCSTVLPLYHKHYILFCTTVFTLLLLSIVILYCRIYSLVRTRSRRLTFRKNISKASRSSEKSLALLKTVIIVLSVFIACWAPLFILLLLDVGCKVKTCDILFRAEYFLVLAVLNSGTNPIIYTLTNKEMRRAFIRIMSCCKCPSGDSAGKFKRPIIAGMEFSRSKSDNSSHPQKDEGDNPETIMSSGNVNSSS
human sphingosine-1-phosphate receptor 1 (S1P1), sequence (P32121 whole entry partner, looked up, the tested form may be a part): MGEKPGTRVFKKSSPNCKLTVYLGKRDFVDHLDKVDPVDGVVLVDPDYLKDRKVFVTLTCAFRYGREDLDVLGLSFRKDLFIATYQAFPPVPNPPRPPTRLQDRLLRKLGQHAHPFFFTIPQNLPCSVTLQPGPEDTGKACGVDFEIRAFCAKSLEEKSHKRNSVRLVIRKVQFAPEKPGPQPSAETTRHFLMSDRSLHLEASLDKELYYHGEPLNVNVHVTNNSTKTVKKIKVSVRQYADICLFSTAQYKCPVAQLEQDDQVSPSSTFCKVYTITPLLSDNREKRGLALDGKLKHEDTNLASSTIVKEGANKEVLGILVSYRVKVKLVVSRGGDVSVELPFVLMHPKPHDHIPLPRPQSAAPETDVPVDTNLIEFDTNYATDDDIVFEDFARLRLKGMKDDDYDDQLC
How it was run: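 Enzyme-fragment complementation read-out: agonist-driven β-arrestin2 binding to ProLink-tagged human S1P1 in stable CHO-K1 cells restores β-galactosidase, measured 1 h at room temperature after a 60 min 37° C. compound incubation. Potency as pEC50, efficacy relative to fingolimod (SPAN).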

[3] = biological target: human sphingosine-1-phosphate receptor 2 (S1P2) (Homo sapiens (Human), UniProt O95136); assay: Inositol monophosphate production (IP-one TB kit), S1P2 CHO-K1 cells; type: cell-based; details: for hS1P2 IP-one pEC50: inositol monophosphate accumulation; for Emax: CHO-K1, efficacy normalized to CYM5520, read-out: hS1P2 IP-one SPAN
human sphingosine-1-phosphate receptor 2 (S1P2), sequence (O95136 whole entry): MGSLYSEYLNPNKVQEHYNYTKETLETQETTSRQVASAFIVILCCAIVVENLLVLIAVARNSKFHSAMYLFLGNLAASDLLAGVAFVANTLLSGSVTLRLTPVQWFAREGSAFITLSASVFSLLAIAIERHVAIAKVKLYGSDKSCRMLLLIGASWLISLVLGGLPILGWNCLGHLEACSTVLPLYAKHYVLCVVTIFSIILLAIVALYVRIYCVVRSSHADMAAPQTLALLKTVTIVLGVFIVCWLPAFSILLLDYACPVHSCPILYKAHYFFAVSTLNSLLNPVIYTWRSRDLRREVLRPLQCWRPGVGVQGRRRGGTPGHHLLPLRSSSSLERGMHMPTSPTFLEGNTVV
How it was run: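 Stable CHO-K1 cells expressing EA-β-arrestin2 and Prolink-tagged human S1P2, plated overnight, then exposed to compounds in IP-one stimulation buffer for 60 min at 37 °C. IP1 read by TR-FRET after 1 h at RT. Efficacy (SPAN) normalized to CYM5520; potency as pEC50.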

[4] = test system: peripheral blood lymphocytes; assay: Peripheral blood lymphocytes (lymphopenia) in c57bl/6 mice, acute and chronic studies; type: in vivo; details: 6 mg/kg sc, 7 days; for Lymphopenia: Effect and Doses, mg/kg, sc: peripheral blood lymphocytes vs vehicle
Method: Compounds were tested for changes in peripheral blood lymphocytes in c57bl/6 mice. In acute studies, animals (n=5/group) were dosed subcutaneously with test compound at a dose of 3 mg/kg. Animals were sacrificed at specific time points and 500 μl of whole blood was collected in EDTA (K2) Eppendorf tubes. Blood was stored on ice and shipped immediately overnight delivery to Charles River Laboratories for analysis. CRL ran samples through their WBC/differential panel on an Advia 120 instrument. We received peripheral lymphocyte counts (10^3 cells/μl) for each blood sample. Treatment group means were compared to a vehicle treatment group for statistical significance. In chronic studies, animals (n=6-8/group) were dosed subcutaneously with test compound either in a dose response paradigm (highest dose of 3 mg/kg) or in a screening paradigm at 6 mg/kg for seven days. On the seventh day, animals were sacrificed 45 minutes after the final dose. Whole blood was collected and analyzed as described for acute studies. […]

[5] = efficacy (SPAN) normalized to fingolimod

Row | Structure (SMILES) | Active Doses, mg/kg sc (>50% MPE) [1] | IC50 (hERG channel) | hS1P1 B-arrestin2 SPAN [2, 5] | hS1P1 B-arrestin2 pEC50 [2] | hS1P2 IP-one pEC50 [3] | Lymphopenia: Effect and Doses, mg/kg, sc [4] | Emax [2, 5] | Emax [3] | Lymphopenia: Effect and Doses, mg/kg, sc (change in peripheral blood lymphocytes) ([4]; significance vs vehicle given)
1 | COc1ccc(-c2noc(-c3ccc4c(c3)nnn4CC(C)(C)O)n2)c(C)c1 [Compound 26, 1-{5-[3-(4-methoxy-2-methylphenyl)-1,2,4-oxadiazol-5-yl]-1H-1,2,3-benzotriazol-1-yl}-2-methylpropan-2-ol] | ≥0.1 mg/kg | > 10 µM | <75 | >5 | <5.0 |  |  |  | 
2 | Cc1ccccc1-c1nc(-c2ccc3c(c2)nnn3C(C)C)no1 [Compound 99, 3-(1-isopropyl-1H-benzo[d][1,2,3]triazol-5-yl)-5-(o-tolyl)-1,2,4-oxadiazole] |  |  |  | >5 | <5.0 | no change: 6 mg/kg, 7 days |  |  | 
3 | CCC1(CC)CC(=O)c2cc(-c3nc(-c4cccnc4)no3)ccc2O1 [Compound 103, 2,2-diethyl-6-[3-(pyridin-3-yl)-1,2,4-oxadiazol-5-yl]-3,4-dihydro-2H-1-benzopyran-4-one] | ≥0.03 mg/kg |  |  | >5 | <5.0 | no change: 6 mg/kg, 7 days | > 75% | < 50% | 
4 | CCC1(CC)CC(=O)c2cc(-c3nc(-c4cccnc4OC)no3)ccc2O1 [Compound 147, 2,2-diethyl-6-(3-(2-methoxypyridin-3-yl)-1,2,4-oxadiazol-5-yl)chroman-4-one] |  |  |  | >5 | <5.0 | no change: 6 mg/kg, 7 days | > 75% | < 50% | 
5 | CCC1(CC)CC(=O)c2cc(-c3nc(-c4ccncc4OC)no3)ccc2O1 [Compound 212, 2,2-diethyl-6-(3-(3-methoxypyridin-4-yl)-1,2,4-oxadiazol-5-yl)chroman-4-one] | ≥0.1 mg/kg |  |  | >5 | <5.0 |  | < 75% | < 50% | 
6 | COc1ccccc1-c1nc(-c2ccc3c(c2)nnn3C(C)C)no1 [Compound 287, 3-(1-isopropyl-1H-benzo[d][1,2,3]triazol-5-yl)-5-(2-methoxyphenyl)-1,2,4-oxadiazole] |  |  |  | >5 | <5.0 | no change: 6 mg/kg, 7 days |  |  | 
7 | Cc1ccccc1-c1noc(-c2ccc3c(c2)nnn3C(C)C)n1 [Compound 293, 5-[3-(2-methylphenyl)-1,2,4-oxadiazol-5-yl]-1-(propan-2-yl)-1H-1,2,3-benzotriazole] | ≥0.1 mg/kg |  |  | >5 | <5.0 | no change: 6 mg/kg, 7 days | > 75% | < 50% | 
8 | CC(C)n1nnc2cc(-c3nc(-c4cccc5c4OCCC5)no3)ccc21 [Compound 304, 3-chroman-8-yl-5-(1-isopropylbenzotriazol-5-yl)-1,2,4-oxadiazole] |  | > 10 µM |  | >5 | <5.0 | no change: 6 mg/kg, 7 days |  |  | 
9 | CC(C)n1nnc2cc(-c3nc(-c4ccncc4C(F)(F)F)no3)ccc21 [Compound 455, 1-(propan-2-yl)-5-{3-[3-(trifluoromethyl)pyridin-4-yl]-1,2,4-oxadiazol-5-yl}-1H-1,2,3-benzotriazole] |  |  |  | >5 | <5.0 | no change: 6 mg/kg, 7 days | > 75% | < 50% | 
10 | CCC1(CC)CC(=O)c2cc(-c3nc(-c4cn[nH]c4)no3)ccc2O1 [Compound 469, 6-(3-(1H-pyrazol-4-yl)-1,2,4-oxadiazol-5-yl)-2,2-diethylchroman-4-one] | ≥0.01 mg/kg | > 10 µM |  | >5 |  |  | > 75% |  | −28% not stat sig: 6 mg/kg, 7 days
